Results as given in ChEMBL document CHEMBL1147051, “Coupling substrate and ion binding to extracellular gate of a sodium-dependent aspartate transporter” (Nature, 2007).
Active and inactive are the calls of the source. The rule behind the calls is not given here.

Experiments:
[1] = Binding affinity to Pyrococcus horikoshii sodium-coupled aspartate transporter
[2] = molecular target: Glutamate transporter homolog (Pyrococcus horikoshii (strain ATCC 700860 / DSM 12428 / JCM 9974 /NBRC 100139 / OT-3), UniProt O59010, D405N); experiment: Binding affinity to Pyrococcus horikoshii sodium-coupled aspartate transporter D405N mutant in presence of NaCl
Pyrococcus horikoshii = experiment: Inhibition of [3H]L-aspartate uptake at Pyrococcus horikoshii sodium-coupled aspartate transporter in presence of thallium
[3] = Binding affinity to Pyrococcus horikoshii sodium-coupled aspartate transporter by isothermal titration calorimetry in presence of NaCl

Sequence of Glutamate transporter homolog (O59010 whole entry D405N): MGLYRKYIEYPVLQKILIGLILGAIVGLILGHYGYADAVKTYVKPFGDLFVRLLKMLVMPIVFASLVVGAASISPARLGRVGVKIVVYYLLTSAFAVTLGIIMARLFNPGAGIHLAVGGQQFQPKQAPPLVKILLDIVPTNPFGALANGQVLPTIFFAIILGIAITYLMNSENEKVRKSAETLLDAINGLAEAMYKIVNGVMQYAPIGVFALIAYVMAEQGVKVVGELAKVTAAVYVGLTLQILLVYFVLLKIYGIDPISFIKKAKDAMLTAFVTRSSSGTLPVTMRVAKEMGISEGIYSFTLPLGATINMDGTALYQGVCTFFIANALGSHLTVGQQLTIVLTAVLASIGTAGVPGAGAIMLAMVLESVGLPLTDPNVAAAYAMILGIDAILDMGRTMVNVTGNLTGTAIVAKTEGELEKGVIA

SMILES	Kd [1] [µM]	further results
N[C@@H](CS(=O)O)C(=O)O	0.02	
O=C(O)CCC(=O)O [SUCCINIC ACID]	1450	
NC(C(=O)O)C(OCc1ccccc1)C(=O)O (racemic)		Kd [2]: 0.1 µM
N[C@@H](CC(=O)O)C(=O)O [ASPARTIC ACID]		Activity (Pyrococcus horikoshii): inactive; Kd [3]: 0.094 µM
N[C@@H](CO)C(=O)O [SERINE]	160	

The next lines start with results.

Kd [1] [µM]	SMILES	further results
122	N[C@@H](CCC(=O)O)C(=O)O [GLUTAMIC ACID]	
0.009	N[C@H](CC(=O)O)C(=O)O [D-ASPARTATE]	
162	N[C@H](CCC(=O)O)C(=O)O [D-GLUTAMATE]	
